{
  "source": "patent US20130045204A1",
  "about": "“FLUORINATED BISPHENOL ETHER COMPOUNDS AND METHODS FOR THEIR USE” (The University of British Columbia, priority 2011, published 2013)",
  "key": {"VCaP xenografts": {"test_system": "VCaP xenografts", "test": "Growth inhibition of VCaP xenografts in castrated mice", "format": "in vivo", "conditions": "castrated NOD-SCID mice, 50 mg/kg i.v. every other day, seven doses; compared to (Ac); FIGS. 3, 4", "description": "Growth inhibition of VCaP xenografts in castrated mice was determined as follow. Male NOD-SCID mice bearing subcutaneous VCaP tumors were castrated when tumor volume was ˜100 mm^3. […] The experiment ended two days after the last dose. Change in tumor volume was determined as the change at day 14 compared to the day of 1st injection. DMSO was used as the vehicle control."}, "AR [1]": {"molecular_target": "T1, AR (Homo sapiens, UniProt P10275)", "T1 sequence (P10275 1-920 T878A)": "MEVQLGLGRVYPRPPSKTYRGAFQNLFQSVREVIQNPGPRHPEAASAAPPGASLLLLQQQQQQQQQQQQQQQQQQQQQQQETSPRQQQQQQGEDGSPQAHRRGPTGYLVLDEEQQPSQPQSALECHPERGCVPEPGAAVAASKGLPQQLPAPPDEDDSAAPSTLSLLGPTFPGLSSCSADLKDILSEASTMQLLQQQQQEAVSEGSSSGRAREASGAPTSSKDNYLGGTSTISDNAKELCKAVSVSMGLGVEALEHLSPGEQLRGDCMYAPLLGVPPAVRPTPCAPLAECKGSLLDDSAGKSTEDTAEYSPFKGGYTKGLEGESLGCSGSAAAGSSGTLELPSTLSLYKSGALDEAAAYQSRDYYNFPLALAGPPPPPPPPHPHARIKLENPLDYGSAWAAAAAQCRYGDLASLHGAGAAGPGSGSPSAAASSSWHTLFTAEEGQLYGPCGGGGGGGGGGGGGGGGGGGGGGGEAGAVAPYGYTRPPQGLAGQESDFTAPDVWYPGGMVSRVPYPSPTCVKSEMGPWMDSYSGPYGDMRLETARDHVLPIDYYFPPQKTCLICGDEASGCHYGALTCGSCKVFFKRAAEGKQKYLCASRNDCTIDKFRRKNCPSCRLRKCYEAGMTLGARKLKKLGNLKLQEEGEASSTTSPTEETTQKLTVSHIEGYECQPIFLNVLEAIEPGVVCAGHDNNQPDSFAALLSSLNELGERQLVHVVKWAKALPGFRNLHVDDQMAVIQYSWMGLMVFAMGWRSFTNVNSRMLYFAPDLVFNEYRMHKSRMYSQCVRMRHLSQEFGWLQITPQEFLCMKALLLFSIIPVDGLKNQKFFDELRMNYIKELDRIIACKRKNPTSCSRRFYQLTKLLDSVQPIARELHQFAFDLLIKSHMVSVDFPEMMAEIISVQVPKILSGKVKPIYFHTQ", "test": "probasin (PB)-luciferase reporter assay of AR transcriptional activity", "format": "cell-based"}, "AR [2]": {"molecular_target": "T1, AR", "test": "PSA-luciferase reporter assay of AR transcriptional activity", "format": "cell-based", "conditions": "for PSA-Luc activity (%) mean ± SD: PSA-luciferase reporter"}, "AR [3]": {"molecular_target": "T1, AR", "test": "ARR3-luciferase reporter assay of AR transcriptional activity", "format": "cell-based"}, "[4]": {"test": "Body weight of animals in LNCaP CRPC xenograft model", "format": "in vivo, mice", "conditions": "treated animals; FIG. 9"}, "LNCaP CRPC xenograft": {"test_system": "LNCaP CRPC xenograft", "test": "LNCaP CRPC xenograft model, antitumor activity", "format": "in vivo, mice", "conditions": "for CRPC tumor growth / antitumor activity (in words): compared to DMSO control or to other comparative compounds, FIGS. 6, 7"}, "[5]": {"molecular_target": "T2, androgen receptor N-terminal domain (Homo sapiens, UniProt P10275)", "T2 construct": "AR (1-558)-Gal4 DBD; expressed in transfected cells; host or cells: LNCaP", "T2 sequence (P10275 1-558)": "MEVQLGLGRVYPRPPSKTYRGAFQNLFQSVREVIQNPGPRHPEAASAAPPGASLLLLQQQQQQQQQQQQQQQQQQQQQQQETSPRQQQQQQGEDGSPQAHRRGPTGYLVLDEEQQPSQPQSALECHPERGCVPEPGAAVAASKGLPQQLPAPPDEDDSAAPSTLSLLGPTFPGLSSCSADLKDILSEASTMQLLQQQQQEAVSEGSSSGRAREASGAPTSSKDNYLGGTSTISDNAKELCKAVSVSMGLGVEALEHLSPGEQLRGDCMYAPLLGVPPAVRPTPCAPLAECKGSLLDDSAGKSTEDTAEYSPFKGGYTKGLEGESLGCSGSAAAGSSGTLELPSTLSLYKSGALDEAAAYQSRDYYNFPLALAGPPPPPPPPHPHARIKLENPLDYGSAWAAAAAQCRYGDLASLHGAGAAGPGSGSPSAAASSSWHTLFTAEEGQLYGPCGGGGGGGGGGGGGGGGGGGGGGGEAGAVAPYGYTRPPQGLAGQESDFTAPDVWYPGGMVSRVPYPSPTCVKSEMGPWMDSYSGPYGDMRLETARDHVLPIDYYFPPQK", "test": "Inhibition of androgen receptor N-terminal domain transactivation (AR (1-558)-Gal4 DBD, luciferase)", "format": "cell-based", "conditions": "LNCaP cells, compound 1 20 μm vs (Ac) 25 μm, 50 ng/ml IL-6; FIG. 2", "description": "Inhibition of androgen receptor N-terminal domain transactivation was determined as follows."}, "LNCaP cells": {"test_system": "LNCaP cells", "test": "Inhibition of androgen-dependent proliferation, AlamarBlue Proliferation Assay", "format": "cell-based, human", "conditions": "0.1 nM R1881, 3 days; compared to comparative compound (Ac); FIGS. 1A and 1B", "description": "LNCaP human prostate cancer cells were maintained in phenol red-free RPMI 1640 medium with 0.5% (v/v) fetal bovine serum, while PC3 human prostate cancer cells were cultured in phenol red DMEM medium with 0.5% (v/v) fetal bovine serum at 37° C. […] LNCaP cells were incubated for 72 hours with R1881, while the duration of the experiment was 48 hours for PC3 cells. AlamarBlue reagent was added to the cells prior to incubation and measuring fluorescence at 570 nm."}},
  "note": "Entries after “also recorded” stand apart in the source; their conditions may differ.",
  "data": [
    {"smiles": "CC(C)(c1ccc(OC[C@H](O)CF)cc1)c1ccc(OC[C@H](O)CCl)cc1", "note": "[Compound 1c, (S)-1-chloro-3-(4-(2-(4-((S)-3-fluoro-2-hydroxypropoxy)phenyl)propan-2-yl)phenoxy)propan-2-ol]", "values": [
      {"measurement": "change in tumor volume at day 14 (in words)", "setting": "VCaP xenografts", "value": "increased loss in tumor volume"}
    ]},
    {"smiles": "CC(C)(c1ccc(OC[C@@H](O)CO)cc1)c1ccc(OC[C@@H](O)CCl)cc1", "note": "[(Ad)]", "values": [
      {"measurement": "PB-Luc activity (%) mean ± SD", "setting": "AR [1]", "value": "54.72 ± 7.83", "unit": "%"},
      {"measurement": "PSA-Luc activity (%) mean ± SD", "setting": "AR [2]", "value": "33.55 ± 11.31", "unit": "%"},
      {"measurement": "ARR3-Luc activity (%) mean ± SD", "setting": "AR [3]", "value": "54.73 ± 12.99", "unit": "%"}
    ]},
    {"smiles": "CC(C)(c1ccc(OC[C@H](O)CCl)cc1)c1ccc(OC[C@@H](O)CO)cc1", "note": "[(Ab)]", "values": [
      {"measurement": "PB-Luc activity (%) mean ± SD", "setting": "AR [1]", "value": "43.70 ± 9.98", "unit": "%"},
      {"measurement": "loss of body weight (in words)", "setting": "[4]", "value": "some losses"},
      {"measurement": "animals in which tumor regression was attained", "setting": "LNCaP CRPC xenograft; FIG. 8", "value": 60, "unit": "%"},
      {"measurement": "CRPC tumor growth / antitumor activity (in words)", "setting": "LNCaP CRPC xenograft", "value": "better antitumor activity"},
      {"measurement": "PSA-Luc activity (%) mean ± SD", "setting": "AR [2]", "value": "24.49 ± 13.20", "unit": "%"},
      {"measurement": "ARR3-Luc activity (%) mean ± SD", "setting": "AR [3]", "value": "43.68 ± 15.16", "unit": "%"}
    ]},
    {"smiles": "CC(C)(c1ccc(OC[C@H](O)CO)cc1)c1ccc(OC[C@@H](O)CCl)cc1", "note": "[(Aa)]", "values": [
      {"measurement": "PB-Luc activity (%) mean ± SD", "setting": "AR [1]", "value": "66.44 ± 12.47", "unit": "%"},
      {"measurement": "PSA-Luc activity (%) mean ± SD", "setting": "AR [2]", "value": "45.16 ± 29.13", "unit": "%"},
      {"measurement": "ARR3-Luc activity (%) mean ± SD", "setting": "AR [3]", "value": "66.44 ± 31.59", "unit": "%"}
    ]},
    {"smiles": "CC(C)(c1ccc(OC[C@@H](O)CF)cc1)c1ccc(OC[C@@H](O)CCl)cc1", "note": "[Compound 1d, (R)-1-chloro-3-(4-(2-(4-((R)-3-fluoro-2-hydroxypropoxy)phenyl)propan-2-yl)phenoxy)propan-2-ol]", "values": [
      {"measurement": "change in tumor volume at day 14 (in words)", "setting": "VCaP xenografts", "value": "increased loss in tumor volume"}
    ]},
    {"smiles": "CC(C)(c1ccc(OCC(O)CO)cc1)c1ccc(OCC(O)CCl)cc1", "note": "(stereo not shown) [(A)]", "values": [
      {"measurement": "PB-Luc activity (%) mean ± SD", "setting": "AR [1]", "value": "63.96 ± 13.70", "unit": "%"},
      {"measurement": "PSA-Luc activity (%) mean ± SD", "setting": "AR [2]", "value": "36.91 ± 16.46", "unit": "%"},
      {"measurement": "ARR3-Luc activity (%) mean ± SD", "setting": "AR [3]", "value": "63.96 ± 14.57", "unit": "%"}
    ]},
    {"smiles": "CC(C)(c1ccc(OCC(O)CF)cc1)c1ccc(OCC(O)CCl)cc1", "note": "(stereo not shown) [Compound 1, 1-chloro-3-(4-(2-(4-(3-fluoro-2-hydroxypropoxy)phenyl)propan-2-yl)phenoxy)propan-2-ol]", "values": [
      {"measurement": "inhibition of androgen receptor N-terminal domain transactivation (in words)", "setting": "[5]", "value": "more potent inhibition activity"},
      {"measurement": "inhibition of androgen-dependent proliferation of LNCaP cells (in words)", "setting": "LNCaP cells", "value": "inhibits androgen-dependent proliferation of LNCaP cells at lower concentrations"},
      {"measurement": "change in tumor volume at day 14 (in words)", "setting": "VCaP xenografts", "value": "increased loss in tumor volume"}
    ]},
    {"smiles": "CC(C)(c1ccc(OC[C@H](O)CO)cc1)c1ccc(OC[C@H](O)CCl)cc1", "note": "[(Ac)]", "values": [
      {"measurement": "PB-Luc activity (%) mean ± SD", "setting": "AR [1]", "value": "41.58 ± 6.63", "unit": "%"},
      {"measurement": "loss of body weight (in words)", "setting": "[4]", "value": "No loss of body weight"},
      {"measurement": "extent of tumor regression (in words)", "setting": "LNCaP CRPC xenograft; (Ac) versus (Ab), FIG. 8", "value": "greater regression"},
      {"measurement": "animals in which tumor regression was attained", "setting": "LNCaP CRPC xenograft; FIG. 8", "value": 60, "unit": "%"},
      {"measurement": "CRPC tumor growth / antitumor activity (in words)", "setting": "LNCaP CRPC xenograft", "value": "better antitumor activity; also recorded: most potent and least toxic of the comparative compounds"},
      {"measurement": "inhibition of transcriptional activity of AR (in words)", "setting": "AR [2]; PSA-, probasin (PB)- and ARR3-luciferase reporters, Table 3", "value": "best activity of all the comparative compounds"},
      {"measurement": "PSA-Luc activity (%) mean ± SD", "setting": "AR [2]", "value": "24.33 ± 13.63", "unit": "%"},
      {"measurement": "ARR3-Luc activity (%) mean ± SD", "setting": "AR [3]", "value": "41.58 ± 14.82", "unit": "%"}
    ]}
  ]
}
